Data published in patent US11267861B2, “Peptide-oligourea foldamer compounds and methods of their use” (UREKA SARL, priority 2016, dated 2022).
Numbered stars: 1 amine (or outer) side, 2 acyl side, 3 side chain; on linkers, the order of the positions; unused ones are H or OH. Peptide text beside a SMILES is read from it. * marks the point of attachment. X10 = C[C@@H](CN*)NC(=O)[C@@H](N)Cc1c[nH]cn1; X2 = C[C@@H](O)[C@H](N)C(=O)N[C@@H](CO)CN*; X3 = O=C(O)[C@@H]1CCCN1C(=O)NC[C@H](CO)N*; CO = O=C([*:1])[*:2]

What was measured:
trypsin = test: Enzymatic degradation by trypsin; format: in vitro ADME; settings: compared to native peptide GLP-1 (seq. 1)
Protocol: Enzymatic Degradation—Chymotrypsin and Trypsin. Stock solutions of the compounds were prepared at a concentration of 400 μM in a solution of 50 mM HEPES buffer, 50 mM NaCl, 0.05% Tween-80, pH 8.0. […] Stability of compounds to chymotrypsin was assessed by conducting a protease reaction in a 96-well plates at room temperature. […] Each compound was also incubated in the absence of the enzyme (12 μL of HEPES buffer and 38 μL of the compound).
At the indicated time (5, 10, 15, 30 and 60 minute(s)) a 10 μL aliquot was removed from each experimental reaction and pipet into 100 μL of 1% TFA solution to quench the reaction (t=0 minutes was determined using the reaction without enzyme). A portion of the quenched reaction solution was analyzed by HPLC. The time course of peptide degradation was determined by integrating the area of each peak in a series of HPLC traces. Another portion of the quenched reaction was analyzed by LC-MS for identification of each peptide fragment.

[1] = molecular target: T1, Leucyl aminopeptidase (EC 3.4.11.1) (Sus scrofa, UniProt P28839); test: Enzymatic degradation by leucyl aminopeptidase; format: in vitro ADME, porcine; settings: compared to the native peptides
T1 construct: from porcine kidney (Sigma); chromatographically purified suspension; purchased Sigma; host or cells: porcine kidney
T1 sequence (P28839 1-519): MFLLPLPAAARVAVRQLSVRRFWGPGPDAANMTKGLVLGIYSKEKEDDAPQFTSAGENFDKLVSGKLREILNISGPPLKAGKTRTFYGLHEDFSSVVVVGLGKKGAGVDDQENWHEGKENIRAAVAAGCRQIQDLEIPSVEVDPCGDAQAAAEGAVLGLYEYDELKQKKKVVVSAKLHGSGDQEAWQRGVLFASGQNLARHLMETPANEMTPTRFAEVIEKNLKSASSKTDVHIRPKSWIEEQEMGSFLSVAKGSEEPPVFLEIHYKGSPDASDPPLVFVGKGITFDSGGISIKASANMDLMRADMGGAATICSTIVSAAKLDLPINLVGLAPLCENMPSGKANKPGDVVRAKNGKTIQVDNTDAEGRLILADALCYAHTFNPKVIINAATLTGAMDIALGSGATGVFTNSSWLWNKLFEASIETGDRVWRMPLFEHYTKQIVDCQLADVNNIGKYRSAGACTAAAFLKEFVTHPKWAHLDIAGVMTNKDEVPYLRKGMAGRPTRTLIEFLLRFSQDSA
Protocol: Enzymatic Degradation—Leucyl Aminopeptidase. Leucyl aminopeptidase (EC 3.4.11.1) from porcine kidney (Sigma); chromatographically purified suspension in 2.9 M (NH4)2SO4, 0.1 M Tris, 5 mM MgCl2 solution, pH 8.0; stock solution in PBS buffer (pH 7.2, 0.01 M). For each degradation experiment, stock solutions of the peptidic substrate and the enzyme were made using phosphate-buffered saline (PBS) buffer solution. […] The pH was adjusted either with NaOH (1 M) or with HCl (1 M) prior to use. A solution of the substrate in PBS buffer (pH 7.2, 0.01 M) and a solution of the required amount of enzyme, were mixed and incubated at 25° C. for 4 hours. Degradation was stopped with concentrated AcOH, and buffer solution was added so that the total volume reached 150 μL.
(§1) The resulting mixture was analyzed by reversed-phase HPLC. A mixture of CH3CN/H2O (0.1% TFA) was used as eluent. Gradients were 10% CH3CN to 100% CH3CN in 10 minutes. The flow rate, for all separations, was 1 mL·min^−1.

[2] = molecular target: T2, Carboxypeptidase A (EC 3.4.17.1) (Bos taurus, UniProt P00730); test: Enzymatic degradation by carboxypeptidase A; format: in vitro ADME, bovine; settings: same results = more stable than the native peptides
T2 construct: from bovine pancreas (Fluka), milky suspension; purchased Fluka; host or cells: bovine pancreas
T2 sequence (P00730 111-419): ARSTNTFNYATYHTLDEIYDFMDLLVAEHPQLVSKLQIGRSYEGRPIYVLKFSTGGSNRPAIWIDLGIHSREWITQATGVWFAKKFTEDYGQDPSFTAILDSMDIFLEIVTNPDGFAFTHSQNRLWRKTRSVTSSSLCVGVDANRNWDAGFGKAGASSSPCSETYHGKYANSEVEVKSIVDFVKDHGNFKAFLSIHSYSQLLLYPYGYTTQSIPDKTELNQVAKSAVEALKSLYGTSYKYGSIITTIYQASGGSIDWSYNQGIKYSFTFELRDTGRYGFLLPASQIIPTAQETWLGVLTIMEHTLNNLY
Protocol: Enzymatic Degradation—Carboxypeptidase A. Carboxypeptidase A (EC 3.4.17.1) from bovine pancreas (Fluka), milky suspension, stock solution in PBS buffer (pH 7.5, 0.01 M). For each degradation experiment, stock solutions of the peptidic substrate and the enzyme were made using phosphate-buffered saline (PBS) buffer solution. The enzyme concentrations of the stock solutions were selected such that the standard substrates were totally degraded after a maximum of 15 min (ratio 2[enzyme]:100[substrate]). PBS buffer solution (10 mM sodium phosphate, 0.14 M NaCl) was prepared as follows: Solution A (4.75 mL of 0.2 M NaH2PO4.H2O), solution B (20.25 mL of 0.2 M Na2HPO4.H2O), NaCl (4.5 g) and H2O (25 mL) were stirred for 15 min at room temperature and diluted tenfold with H2O. The pH was adjusted either with NaOH (1 M) or with HCl (1 M) prior to use. A solution of the substrate in PBS buffer (pH 7.5, 0.01 M) and a solution of the required amount of enzyme, were mixed and incubated at 25° C. for 4 hours. Degradation was stopped with concentrated AcOH, and buffer solution was added so that the total volume reached 150 μL.
as §1

[3] = in vivo; cited from earlier work
mouse GLP-1 receptor = molecular target: T3, mouse GLP-1 receptor (Mus musculus, UniProt O35659); test: GLP-1 functional assay: agonist activity by cAMP production (HTRF) in βTC6 cells; format: cell-based; settings: read-out: EC50 (nM), GLP-1 Functional Assay
T3 construct: mouse GLP-1 receptor endogenously expressed in βTC6 cells; endogenous in cells; host or cells: βTC6 cells
T3 sequence (O35659 22-463): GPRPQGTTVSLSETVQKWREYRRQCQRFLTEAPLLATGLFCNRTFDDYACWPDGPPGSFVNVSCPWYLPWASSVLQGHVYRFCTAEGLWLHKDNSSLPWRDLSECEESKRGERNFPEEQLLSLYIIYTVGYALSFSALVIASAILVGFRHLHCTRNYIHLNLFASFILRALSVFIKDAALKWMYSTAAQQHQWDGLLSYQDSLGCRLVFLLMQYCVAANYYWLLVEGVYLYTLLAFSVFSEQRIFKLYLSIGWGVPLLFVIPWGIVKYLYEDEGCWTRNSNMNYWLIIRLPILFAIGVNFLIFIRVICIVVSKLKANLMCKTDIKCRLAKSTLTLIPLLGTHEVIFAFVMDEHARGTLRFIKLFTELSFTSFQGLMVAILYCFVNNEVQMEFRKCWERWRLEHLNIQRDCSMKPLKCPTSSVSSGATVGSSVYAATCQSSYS
Protocol: For stimulated control measurement, separate assay wells contain 10 nM GLP-1(7-37) were utilized.
Following incubation, the cells were lysed and the fluorescence acceptor (D2-labeled cAMP) and fluorescence donor (anti-cAMP antibody labeled with europium cryptate) were added. […] The results are expressed as a percent of the control response to 10 nM GLP-1(7-37). The standard reference agonist is GLP-1(7-37), which was tested in each experiment at several concentrations to generate a concentration-response curve from which its EC50 value was calculated.
HTRF (Homogeneous Time-Resolved Fluorescence) principle. The HTRF technology is based on time resolved fluorescence energy transfer (TR-FRET), which occurs between long-lived fluorophore Europium or Terbium Cryptates, and EuK or Tb respectively, as a donor and the allophycocyanin XL665, d2 or Red as acceptor. Many compounds and proteins present in biological fluids or serum are naturally fluorescent, and the use of conventional, prompt fluorescence leads to serious limitations in assay sensitivity. The use of long-lived fluorophore combined with time-resolved detection (a delay between excitation and emission detection) minimizes prompt fluorescence interference.

CC[C@H](C)[C@H](NC(=O)[C@H](Cc1ccccc1)NC(=O)NC[C@H](CCC(=O)O)NC(=O)[C@H](CCCCN)NC(=O)[C@H](C)NC(=O)[C@H](C)NC(=O)[C@H](CCC(N)=O)NC(=O)CNC(=O)[C@H](CCC(=O)O)NC(=O)[C@H](CC(C)C)NC(=O)[C@H](Cc1ccc(O)cc1)NC(=O)[C@H](CO)NC(=O)[C@H](CO)NC(=O)[C@@H](NC(=O)[C@H](CC(=O)O)NC(=O)[C@H](CO)NC(=O)[C@@H](NC(=O)[C@H](Cc1ccccc1)NC(=O)[C@@H](NC(=O)CNC(=O)[C@H](CCC(=O)O)NC(=O)[C@H](C)NC(=O)[C@@H](N)Cc1c[nH]cn1)[C@@H](C)O)[C@@H](C)O)C(C)C)C(=O)N[C@@H](C)C(=O)N[C@@H](Cc1c[nH]c2ccccc12)C(=O)N[C@@H](CC(C)C)C(=O)N[C@H](C(=O)N[C@@H](CCCCN)CNC(=O)NCC(=O)N[C@@H](CCCNC(=N)N)CNC(=O)NCC(=O)O)C(C)C [Compound 11]
half-life in the trypsin degradation test compared to native peptide (trypsin): longer half-life

CCCC[C@H](NC(=O)[C@H](CC(C)C)NC(=O)[C@H](Cc1c[nH]c2ccccc12)NC(=O)[C@H](CCC(N)=O)NC(=O)[C@@H](NC(=O)[C@H](Cc1ccccc1)NC(=O)[C@H](CC(=O)O)NC(=O)[C@H](CCC(N)=O)NC(=O)[C@H](C)NC(=O)[C@H](CCCNC(=N)N)NC(=O)[C@H](CCCNC(=N)N)NC(=O)[C@H](CO)NC(=O)[C@H](CC(=O)O)NC(=O)[C@H](CC(C)C)NC(=O)[C@H](Cc1ccc(O)cc1)NC(=O)[C@H](CCCCN)NC(=O)[C@H](CO)NC(=O)[C@H](Cc1ccc(O)cc1)NC(=O)[C@H](CC(=O)O)NC(=O)[C@H](CO)NC(=O)[C@@H](NC(=O)[C@H](Cc1ccccc1)NC(=O)[C@@H](NC(=O)CNC(=O)[C@H](CCC(N)=O)NC(=O)[C@H](CO)NC(=O)NC[C@@H](N)Cc1c[nH]cn1)[C@@H](C)O)[C@@H](C)O)C(C)C)C(=O)N[C@@H](CC(N)=O)C(=O)N[C@H](C(=O)O)[C@@H](C)O [Compound 17]
stability (half-life) with leucyl aminopeptidase compared to native peptides [1]: more stable than the native peptides

CCCC[C@H](NC(=O)[C@H](CC(C)C)NC(=O)[C@H](Cc1c[nH]c2ccccc12)NC(=O)[C@H](CCC(N)=O)NC(=O)[C@@H](NC(=O)[C@H](Cc1ccccc1)NC(=O)[C@H](CC(=O)O)NC(=O)[C@H](CCC(N)=O)NC(=O)[C@H](C)NC(=O)[C@H](CCCNC(=N)N)NC(=O)[C@H](CCCNC(=N)N)NC(=O)[C@H](CO)NC(=O)[C@H](CC(=O)O)NC(=O)[C@H](CC(C)C)NC(=O)[C@H](Cc1ccc(O)cc1)NC(=O)[C@H](CCCCN)NC(=O)[C@H](CO)NC(=O)[C@H](Cc1ccc(O)cc1)NC(=O)[C@H](CC(=O)O)NC(=O)[C@H](CO)NC(=O)[C@@H](NC(=O)[C@H](Cc1ccccc1)NC(=O)[C@@H](NC(=O)CNC(=O)[C@H](CCC(N)=O)NC(=O)NC[C@H](CO)NC(=O)[C@@H](N)Cc1c[nH]cn1)[C@@H](C)O)[C@@H](C)O)C(C)C)C(=O)N[C@@H](CC(N)=O)C(=O)N[C@H](C(=O)O)[C@@H](C)O [Compound 18]
stability (half-life) with leucyl aminopeptidase compared to native peptides [1]: more stable than the native peptides

CC(C)C[C@H](NC(=O)[C@H](C)NC(=O)[C@H](Cc1c[nH]c2ccccc12)NC(=O)[C@H](Cc1ccc(O)cc1)NC(=O)[C@H](CCC(=O)O)NC(=O)[C@H](C)NC(=O)[C@H](Cc1ccccc1)NC(=O)NC[C@H](CO)NC(=O)[C@@H](N)[C@@H](C)O)C(=O)N[C@@H](CC(C)C)C(=O)N[C@@H](CO)CNC(=O)N1CCC[C@H]1C(=O)O [Compound 24] ({X2-CO}-FAEYWALL-X3)
stability with carboxipeptidase A compared to native peptides [2]: same results

Albiglutide
half-life [3]: four to seven

{X10-CO}-EGTFTSDLSKQLEEEAVRLFIEWLKNGGPSSGAPPSKKKKKK-NH2 [Compound 67]
EC50 (mouse GLP-1 receptor): 0.082 nM
